Consider four compounds from patent publication US20090053290A1, “TRANSDERMAL DRUG DELIVERY COMPOSITIONS AND TOPICAL COMPOSITIONS FOR APPLICATION ON THE SKIN” (priority 2006, published 2009).

Structures are written as SMILES.

The conditions of data set [1]: in vivo; cited from earlier work.
Data set [2] relates to onychomycosis. Conditions: nail lacquer, topical; cited from earlier work.
Data set [3] relates to Fischer 344 rats. From the text: Three-week-old Fischer 344 rats were obtained from Harlan Sprague Dawley, Inc. (Indianapolis, Ind.). NIH and University of Southern California IACUC guidelines for the care and use of laboratory animals were observed. […] The samples were retrieved after 3 and 6 weeks post-operation, and samples were processed for H&E and von Kossa staining, the latter to determine the extent of calcification.

In data set [4] the test system is bovine tendon. The data set can be described thus: Melting temperature measurement of fixed tissue (cross-linking), tendon. Conditions: 48 hours; PA 0.5% in PBS, GA 0.625% in PBS; n = 3; in °C.
Experimental: (§1) The fixed tissues and fresh tissues were assayed for their melting temperature by heating tissue strips (1×2 cm^2, n=3). The melting temperature was recorded when tissues started to shrink.
Data set [5] concerns human skin fibroblasts. The data set can be described thus: Cell proliferation and collagen synthesis of fibroblasts cultured on treated pericardium. In kind it is cell-based. Conditions: p<0.005 for treated pericardium, FIG. 9.
Experimental: Discs, 15 mm in diameter, were punched out from PA-treated bovine pericardium and inserted into the bottom of 24-well plates. After washing and equilibrating with PBS, human skin fibroblasts (8×10^4/well, third passage kindly provided by Dr. Warren Garner, University of Southern California) were placed on top of the tissues. After 48 hours of culture in 10% FBS/DMEM, the medium was changed to a labeling medium ([^3H]thymidine, 10 μCi/mL, 0.5% FBS/DMEM) followed by a 24 hour labeling period. Cell proliferation was assayed and collagen synthesis recorded as [^3H]OH-proline incorporation in a culture medium containing 25 μg/mL ascorbic acid, 25 μg/mL β-APN and 25 μCi/mL [^3H]proline in 0.5% FBS/DMEM after labeling for 48 hours.
Data set [6] has as its system bovine pericardium. The data set can be described thus: Melting temperature measurement of fixed tissue (cross-linking), pericardium. The following applies: 48 hours; PA 0.5% in PBS, GA 0.625% in PBS; n = 3; in °C.
Experimental: as §1
Data set [7] concerns collagenase. Format: biochemical.
Experimental: Tissue integrity was checked at the end of the incubation using a standard histological method (hematoxylin-eosin (H&E)). […] At predetermined intervals, 1.0 mL of solution was taken out and filtered through a 0.45-μM cellulose filter to separate solubilized collagen from insolubilized matrix. The amount of solubilized collagen was determined after total acid hydrolysis in 6N HCl for 24 hours at 100° C. by measuring hydroxyproline. The results are expressed as a percentage of the total collagen solubilized.
The subject of data set [8] is NIH 3T3 cells. The following applies: mouse, 72 h.
Experimental: NIH 3T3 cells were used in these studies. Cells were cultured in 24-well plates at a density of 5×10^6 cells/well in 10% FBS/DMEM overnight. […] Cells were incubated for 72 hours before cell counting and morphological studies.
The conditions of data set [9]: in vivo; cited from earlier work. This is another data set of the same source.

Turning to `CC(=O)Oc1ccccc1C(=O)O` [Aspirin, aspirin], the “period of inhibition of blood clotting” value in [1] is reported as 4 to 7 days.

As for `Cc1cc(C2CCCCC2)n(O)c(=O)c1` [Ciclopirox], in data set [2], the cure rate is under 10%.

As for `O=CCCCC=O` [GA, glutaraldehyde], in [3] (periods ranging from 3 and 6 weeks), the “degradation of fixed tissue after subcutaneous implantation (summary)” value is on record as “no apparent degradation”. Also, the “calcification of implant (Von Kossa staining)” value in data set [3] (rat, in vivo, sc) is recorded as “dystrophic calcification”. In data set [3] (subcutaneous), the “implant degradation, six weeks postoperatively” value is recorded as “still intact” and the “implant integrity, three weeks postoperatively” value is reported as “retained their integrity”. Also, in [3] (subcutaneous, treated pericardium, H&E), the “tissue reaction to implant, one week postoperatively” value is “lesser inflammatory reaction”. Also, the “Melting temperature, tendon” value in data set [4] was determined as 84 ± 1.0. Moreover, in [5], the “collagen synthesis / deposition (hydroxyproline incorporation)” value was “inhibit collagen synthesis”. Besides, the “Melting temperature, pericardium” value in [6] amounted to 94 ± 1.5. The “collagen fibril structure after 24 hours of collagenase digestion (H&E)” value in data set [7] is listed as “remained intact”. In data set [8], the “concentration above which cells could not survive” value is reported as “greater than 0.6 μg/mL” and the “concentration at which cytotoxicity was observed” value is at most 600 ng/mL.

Consider `CC1=C(/C=C/C(C)=C/C=C/C(C)=C/C(=O)O)C(C)(C)CCC1` [tretinoin, All-trans-retinoic acid], for which, in data set [9], the absorption entry was “less than 2%”.
